# According to US20220296629A1, “HUMAN HEAD AND NECK CANCER TREATMENT” (CARMEL HAIFA […] CORPORATION LTD., priority 2019, published 2022):
# Tests used:
# [1] = test system: miR-193a; experiment: miR-193a expression levels in Fadu cells by quantitative real-time PCR; type: cell-based, Homo sapiens; conditions: 5 μM, 48 hours, U6 normalization, vs 0.01% DMSO control
# Method: FIG. 8 includes a vertical bar graph showing Real-time analysis of miRNA expression patterns in Fadu Cells. The expression levels of miRNAs; hsa-mir193a were analysed using Quantitative real-time PCR, following 5-aza-2′ -deoxycytidine cell treatment. Data represented as average of three independent experiments conducted in triplicates (mean±SD) and U6 was used as normalization. Statistical significance determined by a two-tailed Student's t-test. Significance was determined as follows: ***P<0.01.
# miRNA was isolated using mirVana™ miRNA Isolation Kit (Ambion®) according the manufacturer's protocol, the mirVana™ kit utilizes two sequential GFFs, since the small […]
# The concentration and purity of miRNA was assessed using NanoDrop™ lite spectrophotometer (NanodropTechnologies, Willmington, Del., USA). miRNA expression profiling was performed using the TaqMan microRNA arrays system (Applied Biosystems) with specific TaqMan primers and probes for miR-193a. cDNA was generated using TaqMan microRNA assay using Primers for the mir-193a with FAM/MGB. […] Real time PCR was carried out with Rotor Gene 6000 Real-Time PCR Machine-Bosch-Bosch, results were analyzed with delta delta Ct (ΔΔCt) method using the rotor Gene 6000 Real-Time PCR software. […]
# miRNA were isolated, quantified, profiled and cDNA was generated. […]
# [2] = test system: Fadu cells; experiment: Fadu xenograft tumor growth in athymic nude mice; type: in vivo; conditions: tumors harvested 21 days post treatment, P<0.0001
# Method: FIG. 6 includes a graph presenting data from 16 athymic nude male mice which were subcutaneously injected with 1×10^6 Fadu cells. When the tumors reached a volume of 200 mm^3 the mice were divided into 2 groups of 8 mice each, with a similar dispersal of tumor volumes. Mice were injected once a week with intraperitoneal (IP) injection of either PBS×1 to the control group, or 1×10^10 vp AD-miR-193a, for 3 weeks. During the experiments, tumor volumes were measured twice a week using caliber meter. The results presented are the mean±SE. n=8 mice per experimental group.
# FIGS. 7A-7B include vertical bar graphs showing the effect of miR-193a on final tumor weight (7A) and volume (7B). The results presented are the mean±SE. n=8 tumors per experimental group. Statistical significance for tumor weight determined by Mann-Whitney and for tumor volume by two-tailed Student's t-test (treatment vs. control). ***P<0.01.
# Xenograft animal model were generated via injection of 1×10^6 Fadu cells in Matrigel subcutaneous in athymic nude mice immunodeficient mice. When the tumors reached a volume of 200 mm^3 the mice were divided into 2 groups of 8 mice each, with a similar dispersal of tumor volumes. […]
# Tumors were measured by electronic calliper, once a week. 21 days post treatment the tumors were harvested and weight was measured.
# The animals were sacrificed, and the tumors were removed, weighed and measured. […]
# [3] = test system: Fadu cells; experiment: XTT cell viability after transient transfection of Fadu cells; type: cell-based; conditions: 1 μg plasmid, 48 hours post transfection, viability reduced to
# Method: FIG. 2 includes a vertical bar graph of cell viability following miR-193a-5p plasmid transfection. Squamous cancer cells Fadu were transfected with pCMV-miR-193a, or with p-CMV-GFP (MOC plasmid), 48 hours post transfection. cell viability was detected by XTT. Presented data are means±SD of three experiments, each conducted in eight replicates, and are expressed as percentages of the respective control. ***P<0.001(Dunnett's test).
# FIG. 3 includes a vertical bar graph of cell viability following miR-193a-5p plasmid transfection time course experiment. Squamous cancer cells Fadu were transfected with miR-193a-5p or with MOC plasmid, 24 hours, 48 hours and 72 hours post transfection. cell viability was detected by XTT. Presented data are means±SD of three experiments, each conducted in eight replicates, and are expressed as percentages of the respective control. Statistical significance determined by a two-tailed student's t-test. Significance was determined as follows: *P<0.05, **P<0.01 and ***P<0.001.
# Fadu Cells were seeded in a 96 well plate (3×10^4 cells/well). […]
# At the end of treatment, cell viability was measured using XTT. The data presented are average of at least three independent experiments; 8 repeats each (means±SEM), and are expressed as percentage of the respective vehicle treated control. […]
Molecule,Increase in miR-193a expression levels [1] [folds],Final tumor volume vs control [2],Final tumor weight vs control [2],"Cell viability (XTT), percentage of control ([3]; first experiment)","Cell viability (XTT), percentage of control ([3]; second and third experiment) [%]"
"Nc1ncn([C@H]2C[C@H](O)[C@@H](CO)O2)c(=O)n1 [5-aza, 5-aza-2′ -deoxycytidine]",132,,,,
"miR-193a: Homo sapiens miR-193a, SEQ ID NO:1 UGGGUCUUUGCGGGCGAGAUGA; delivered as CMV plasmid or adenovirus AD-miR-193a (listed as Homo sapiens)",,significantly reduced,significantly reduced,approximately 70%,~40
